Assay results published in ChEMBL document CHEMBL1201862, “PubChem BioAssay data set” (2004).
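96-well plates; 48 h exposure; 5 concentrations. Endpoints by linear interpolation between flanking doses. Not reached: highest tested concentration assigned. The concentration for 50% growth inhibition is given as GI50.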 Calls of active or inactive are those of the source. No stated cut-off is given here; in the data, active = GI50 up to about 1.1 µM and inactive = higher.

Legend:
Assay in all cases: NCI-60 cell line screen, 48 h
SNB-75 = system: SNB-75
RXF 393 = system: RXF 393
DU-145 = system: DU-145
COLO 205 = system: COLO 205
SR = system: SR
T47D = system: T47D
CAKI-1 = system: CAKI-1
KM12 = system: KM12
PC-3 = system: PC-3
M14 = system: M14
HL-60 = system: HL-60
BT-549 = system: BT-549
NCI-H522 = system: NCI-H522
LOX IMVI = system: LOX IMVI
MDA-MB-231 = system: MDA-MB-231
NCI-H460 = system: NCI-H460
HT-29 = system: HT-29
HOP-62 = system: HOP-62
RPMI-8226 = system: RPMI-8226

Measured: GI50

CCNC(=S)/N=c1\sc(NCC)nc2sc3c(c12)CCN(N1CCc2c(sc4nc(NCC)s/c(=N\C(=S)NCC)c24)C1)C3
inactive: SNB-75 > 100 µM | RXF 393 8.93 µM | DU-145 77.8 µM | COLO 205 57.4 µM | SR 30.5 µM | T47D 42.4 µM | CAKI-1 > 100 µM | KM12 40.2 µM | PC-3 > 100 µM | M14 46.5 µM | HL-60 98.2 µM | BT-549 > 100 µM | NCI-H522 65.6 µM | LOX IMVI 26 µM | MDA-MB-231 29.5 µM | NCI-H460 76.6 µM | HT-29 41.1 µM | HOP-62 57.3 µM

O=C(Cc1nccc2c1[nH]c1ccccc12)OC1C#CCSCC#C/C=C\1 (stereo not given)
inactive: RXF 393 > 100 µM | DU-145 > 100 µM | COLO 205 52.1 µM | SR > 100 µM | T47D 72.1 µM | CAKI-1 > 100 µM | KM12 > 100 µM | PC-3 > 100 µM | M14 > 100 µM | HL-60 57 µM | BT-549 > 100 µM | NCI-H522 44.2 µM | RPMI-8226 > 100 µM | LOX IMVI 57.9 µM | MDA-MB-231 > 100 µM | NCI-H460 > 100 µM | HT-29 > 100 µM | HOP-62 > 100 µM

CCN1CCC(O)(/C=C/c2ccc(OC)cc2)C(C(=O)/C=C/c2ccc(OC)cc2)C1 (stereo not given)
inactive: RXF 393 2.37 µM | DU-145 10.9 µM | COLO 205 4.2 µM | SR 3.46 µM | T47D 6.04 µM | KM12 7.8 µM | PC-3 11.3 µM | M14 15.5 µM | HL-60 3.15 µM | BT-549 15.5 µM | NCI-H522 12.5 µM | RPMI-8226 2.26 µM | LOX IMVI 2.37 µM | MDA-MB-231 5.02 µM | NCI-H460 11.1 µM | HT-29 7.16 µM | HOP-62 18.2 µM

CC1(C)OC[C@H](COCOP2(=O)Oc3ccc4ccccc4c3-c3c(ccc4ccccc34)O2)O1
inactive: RXF 393 > 10 µM | DU-145 17.6 µM | SR 16.7 µM | T47D 18.3 µM | KM12 15.5 µM | PC-3 14.2 µM | M14 16.3 µM | HL-60 17.1 µM | BT-549 16.6 µM | MDA-MB-231 15.7 µM | NCI-H460 16.7 µM | HT-29 16.4 µM | HOP-62 21.4 µM

O=c1[nH]c2cc([N+](=O)[O-])c(N/N=C/c3ccc(Cl)cc3Cl)c([N+](=O)[O-])c2[nH]1
inactive: SNB-75 > 100 µM | RXF 393 18.2 µM | DU-145 51.9 µM | COLO 205 > 100 µM | T47D > 100 µM | CAKI-1 > 100 µM | KM12 5.85 µM | PC-3 > 100 µM | M14 > 100 µM | HL-60 > 100 µM | BT-549 > 100 µM | NCI-H522 31.1 µM | RPMI-8226 33.8 µM | LOX IMVI 18.5 µM | MDA-MB-231 13.1 µM | NCI-H460 83 µM | HT-29 > 100 µM | HOP-62 59.6 µM

CC1(C)CCC[C@]2(C)[C@@H]1CC[C@@]13O[C@@H]1C1=C(CO)C(=O)O[C@]14O[C@@H]4[C@@H]23
inactive: SNB-75 15.2 µM | RXF 393 8.71 µM | DU-145 14.3 µM | COLO 205 17.7 µM | SR 4.61 µM | T47D 22 µM | CAKI-1 12.8 µM | KM12 18 µM | PC-3 9.1 µM | M14 10.8 µM | BT-549 14.7 µM | NCI-H522 7.55 µM | RPMI-8226 > 100 µM | LOX IMVI 10.8 µM | MDA-MB-231 15.7 µM | NCI-H460 14.9 µM | HT-29 12.4 µM | HOP-62 17.8 µM

O=c1c(-c2ccc(Cl)cc2)nnc2n(Cc3ccccc3)c3ccccc3n12
inactive: SNB-75 13 µM | RXF 393 13.2 µM | DU-145 > 100 µM | COLO 205 > 100 µM | SR > 100 µM | T47D 67.9 µM | CAKI-1 16.4 µM | KM12 28.9 µM | PC-3 30.1 µM | M14 43.4 µM | HL-60 50 µM | BT-549 22 µM | NCI-H522 16.8 µM | LOX IMVI 82.6 µM | MDA-MB-231 20 µM | NCI-H460 33.3 µM | HT-29 52.6 µM | HOP-62 23.6 µM
